Where a name gives a salt, the structure may show the parent alone.
melting point	Structure (SMILES)
144 to 146 °C	CC(C)N(Cc1ccc(C(=O)O)cc1)c1nc(-c2ccc(N(Cc3ccccc3)Cc3ccccc3)cc2)cs1 [Example 109, 4-((N-(4-(4-dibenzylaminophenyl)-2-thiazolyl)-N-isopropylamino)methyl)benzoic acid]
230 °C (dec.)	CC(C)CN(c1ccc(C(=O)O)cc1)c1nc(-c2ccc(NC(=O)c3ccc(C4CCCCC4)cc3)cc2)cs1 [Example 17, 4-(N-(4-(4-(4-cyclohexylbenzoylamino)phenyl)-2-thiazolyl)-N-isobutylamino)benzoic acid]
237 to 240 °C	CC(C)N(c1ccc(OCC(=O)O)cc1)c1nc(-c2ccc(NC(=O)c3ccc(N4CCCCC4)nc3)cc2)cs1 [Example 57, (4-(N-isopropyl-N-(4-(4-(2-piperidino-5-pyridinecarbonylamino)phenyl)-2-thiazolyl)amino)phenoxy)acetic acid]
230 °C (dec.)	CC(C)N(c1ccc(C(=O)O)cc1)c1nc(-c2ccc(NC(=O)CCCC3CCCCC3)cc2)cs1 [Example 46, 4-(N-(4-(4-(4-cyclohexylbutyrylamino)phenyl)-2-thiazolyl)-N-isopropylamino)benzoic acid]
146 to 147 °C	CN(CCCCc1ccccc1)c1ccc(-c2csc(N(C)Cc3ccc(C(=O)O)cc3)n2)cc1 [Example 222, 4-((N-methyl-N-(4-(4-(N-methyl-N-(4-phenylbutyl)amino)phenyl)-2-thiazolyl)amino)methyl)benzoic acid]
181 to 183 °C	CN(Cc1ccc(C2CCCC2)cc1)c1ccc(-c2csc(N(C)Cc3ccc(C(=O)O)cc3)n2)cc1 [Example 212, 4-((N-(4-(4-(N-(4-cyclopentylbenzyl)-N-methylamino)phenyl)-2-thiazolyl)-N-methylamino)methyl)benzoic acid]
168 to 171 °C	O=C(O)c1ccc(C2(c3nc(-c4ccc(OCc5ccc(Cl)c(Cl)c5)cc4)cs3)CCCCC2)cc1 [Example 93, 4-(1-(4-(4-(3,4-dichlorobenzyloxy)phenyl)-2-thiazolyl)cyclohexyl)benzoic acid]
135 to 140 °C	CC(C)N(Cc1ccc(C(=O)O)cc1)c1nc(-c2ccc(OCc3cccc(N4CCCCC4)c3)cc2)cs1 (as salt: hydrochloride) [Example 127, 4-((N-isopropyl-N-(4-(4-(3-piperidinobenzyloxy)phenyl)-2-thiazolyl)amino)methyl)benzoic acid dihydrochloride]
184 to 185 °C	COc1ccc(OCc2ccccc2)c(-c2csc(Nc3ccc(C(=O)O)cc3)n2)c1 [Example 154, 4-(4-(2-benzyloxy-5-methoxyphenyl)-2-thiazolylamino)benzoic acid]
88 to 90 °C	CN(Cc1ccc(C(=O)OCOC(=O)C(C)(C)C)cc1)c1nc(-c2ccc(OCc3ccc(C4CCCCC4)cc3)cc2)cs1 [Example 268, 2,2-dimethylpropionyloxymethyl 4-((N-(4-(4-(4-cyclohexylbenzyloxy)phenyl)-2-thiazolyl)-N-methylamino)methyl)benzoate]
262 to 264 °C	CC(C)(c1ccc(C(=O)O)cc1)c1nc(-c2ccc(NC(=O)c3ccc(C4CCCCC4)cc3)cc2)cs1 [Example 43, 4-(1-(4-(4-(4-cyclohexylbenzoylamino)phenyl)-2-thiazolyl)-1-methylethyl)benzoic acid]
230 °C (dec.)	CC(C)(c1ccc(C(=O)O)cc1)c1nc(-c2ccc(OCc3ccc(-c4ccccc4)cc3)cc2)cs1 [Example 92, 4-(1-(4-(4-(4-biphenylylmethoxy)phenyl)-2-thiazolyl)-1-methylethyl)benzoic acid]
139 to 141 °C	C=CCN(Cc1ccc(C2CCCCC2)cc1)c1ccc(-c2csc(N(C)Cc3ccc(C(=O)O)cc3)n2)cc1 [Example 119, 4-((N-(4-(4-(N-allyl-N-(4-cyclohexylbenzyl)amino)phenyl)-2-thiazolyl)-N-methylamino)methyl)benzoic acid]
234 to 236 °C	CC(C)N(c1ccc(C(=O)O)cc1)c1nc(-c2ccc(NC(=O)c3ccccc3)cc2)cs1 [Example 9, 4-(N-(4-(4-benzoylaminophenyl)-2-thiazolyl)-N-isopropylamino)benzoic acid]
220 °C (dec.)	CC(C)N(c1cccc(C(=O)O)c1)c1nc(-c2ccc(NC(=O)c3ccc(N4CCCCC4)cc3)cc2)cs1.Cl
76 to 84 °C	CC(C)OC(=O)OC(C)OC(=O)c1ccc(CN(C)c2nc(-c3ccc(OCc4ccc(C5CCCCC5)cc4)cc3)cs2)cc1 (centres unmarked) [Example 271, 1-isopropoxycarbonyloxyethyl 4-((N-(4-(4-(4-cyclohexylbenzyloxy)phenyl)-2-thiazolyl)-N-methylamino)methyl)benzoate]
239 to 247 °C	CCN(c1ccc(C(=O)O)cc1)c1nc(-c2ccc(OCc3ccc(C4CCCCC4)cc3)cc2)cs1 [Example 23, 4-(N-(4-(4-(4-cyclohexylbenzyloxy)phenyl)-2-thiazolyl)-N-ethylamino)benzoic acid]

melting point	Structure (SMILES)
149 to 150 °C	CN(Cc1ccc(C(=O)O)cc1)c1nc(-c2ccc(N(C)Cc3ccc(C4CCCCC4)cc3)c(Cl)c2)cs1 [Example 242, 4-((N-(4-(3-chloro-4-(N-(4-cyclohexylbenzyl)-N-methylamino)phenyl)-2-thiazolyl)-N-methylamino)methyl)benzoic acid]
230 °C (dec.)	O=C(O)c1ccc(Nc2nc(-c3ccc(OCc4ccc(Cl)c(Cl)c4)cc3)cs2)cc1 [Example 94, 4-(4-(4-(3,4-dichlorobenzyloxy)phenyl)-2-thiazolylamino)benzoic acid]
183 °C (dec.)	CN(Cc1ccc(C2CCCCC2)cc1)c1ccc(-c2csc(N(C)Cc3cccc(C(=O)O)c3)n2)cc1 [Example 204, 3-((N-(4-(4-(N-(4-cyclohexylbenzyl)-N-methylamino)phenyl)-2-thiazolyl)-N-methylamino)methyl)benzoic acid]
230 °C (dec.)	O=C(O)c1ccc(N(CCN2CCCCC2)c2nc(-c3ccc(OCc4ccc(Cl)c(Cl)c4)cc3)cs2)cc1 [Example 98, 4-(N-(4-(4-(3,4-dichlorobenzyloxy)phenyl)-2-thiazolyl)-N-(2-piperidinoethyl)amino)benzoic acid]
167 to 169 °C	CC(C)Cc1ccc(CNc2ccc(-c3csc(N(CC4CCCCC4)c4ccc(C(=O)O)cc4)n3)cc2)cc1 [Example 131, 4-(N-cyclohexylmethyl-N-(4-(4-(4-isobutylbenzylamino)phenyl)-2-thiazolyl)amino)benzoic acid]
219 to 221 °C	CC(C)(c1ccc(C(=O)O)cc1)c1nc(-c2ccc(OCc3ccc(C4CCCCC4)cc3)cc2)cs1 [Example 42, 4-(1-(4-(4-(4-cyclohexylbenzyloxy)phenyl)-2-thiazolyl)-1-methylethyl)benzoic acid]
158 to 159 °C	CN(CCc1ccc(C(F)(F)F)cc1)c1ccc(-c2csc(N(C)Cc3ccc(C(=O)O)cc3)n2)cc1 [Example 236, 4-((N-methyl-N-(4-(4-(N-methyl-N-(2-(4-trifluoromethylphenyl)ethyl)amino)phenyl)-2-thiazolyl)amino)methyl)benzoic acid]
228 to 230 °C	O=C(O)c1ccc(N(CC2CCCCC2)c2nc(-c3nc4ccc(OCc5ccc(F)c(F)c5)cc4o3)cs2)cc1 [Example 190, 4-(N-cyclohexylmethyl-N-(4-(6-(3,4-difluorobenzyloxy)-2-benzooxazolyl)-2-thiazolyl)amino)benzoic acid]
230 °C (dec.)	O=C(O)c1ccc(N(CC2CCCCC2)c2nc(-c3ccc(OCc4ccc(C5CCCCC5)cc4)cc3)cs2)cc1 [Example 25, 4-(N-(4-(4-(4-cyclohexylbenzyloxy)phenyl)-2-thiazolyl)-N-cyclohexylmethylamino)benzoic acid]
250 °C (dec.)	CN(c1ccc(C(=O)O)cc1)c1nc(-c2ccc(OCc3ccc(C4CCCCC4)cc3)cc2)cs1 [Example 22, 4-(N-(4-(4-(4-cyclohexylbenzyloxy)phenyl)-2-thiazolyl)-N-methylamino)benzoic acid]
210 °C (dec.)	O=C(O)CN(c1ccc(C(=O)O)cc1)c1nc(-c2ccc(NC(=O)c3ccccc3)cc2)cs1 [Example 16, 4-(N-(4-(4-benzoylaminophenyl)-2-thiazolyl)-N-carboxymethylamino)benzoic acid]
223 to 228 °C	CC(C)(C)c1ccc(COc2ccc(-c3csc(Cc4ccc(C(=O)O)cc4)n3)cc2)cc1 [Example 47, 4-(4-(4-(4-tert-butylbenzyloxy)phenyl)-2-thiazolylmethyl)benzoic acid]
220 °C (dec.)	CC(C)N(c1ccc(C(=O)O)c(Cl)c1)c1nc(-c2ccc(NC(=O)c3ccc(N4CCN(C)CC4)cc3)cc2)cs1 [Example 41, 2-chloro-4-(N-isopropyl-N-(4-(4-(4-(4-methyl-1-piperazinyl)benzoylamino)phenyl)-2-thiazolyl)amino)benzoic acid]
212 to 213 °C	O=C(O)c1cc(Cc2nc(-c3cc(Cl)ccc3OCc3ccccc3)cs2)ccc1O [Example 158, 5-(4-(2-benzyloxy-5-chlorophenyl)-2-thiazolylmethyl)-2-hydroxybenzoic acid]
200 to 202 °C	CC(C)c1ccc(CNc2ccc(-c3csc(N(CC4CCCCC4)c4ccc(C(=O)O)cc4)n3)cc2)cc1 [Example 130, 4-(N-cyclohexylmethyl-N-(4-(4-(4-isopropylbenzylamino)phenyl)-2-thiazolyl)amino)benzoic acid]
240 °C (dec.)	CC(C)N(c1ccc(OCC(=O)O)cc1)c1nc(-c2ccc(NC(=O)c3ccc(C4CCCCC4)cc3)cc2)cs1 [Example 51, (4-(N-(4-(4-(4-cyclohexylbenzoylamino)phenyl)-2-thiazolyl)-N-isopropylamino)phenoxy)acetic acid]

Structure (SMILES)	melting point
CN(Cc1ccc(C(=O)[O-])cc1)c1nc(-c2ccc(OCc3ccc(C4CCCCC4)cc3)cc2)cs1.[Na+] [Example 120, sodium 4-((N-(4-(4-(4-cyclohexylbenzyloxy)phenyl)-2-thiazolyl)-N-methylamino)methyl)benzoate]	250 °C (dec.)
CC(=O)OCOC(=O)c1ccc(CN(C)c2nc(-c3ccc(OCc4ccc(C5CCCCC5)cc4)cc3)cs2)cc1 [Example 270, acetoxymethyl 4-((N-(4-(4-(4-cyclohexylbenzyloxy)phenyl)-2-thiazolyl)-N-methylamino)methyl)benzoate]	100 to 104 °C

— patent publication US7163952B2, “Azole compound and medicinal use thereof” (Japan Tobacco Inc., priority 2001, dated 2007)
